Test results from patent publication US20250120964A1, “USE OF NOVEL MOLECULAR GLUE” (ASTROGEN, INC., priority 2023, published 2025).
pIC50: −log10 of the molar value.

Experiments:
[1] = test system: U87 cells; assay: Western blotting of gamma-H2AX and cleaved PARP; format: cell-based
Method: The following experiments were carried out to check whether AST-DT-218 induces DNA fragmentation and apoptosis. First, U87 cells were cultured, the cells were separated using Trypsin-EDTA when the cells grew sufficiently, the cells were plated and distributed uniformly on a 12-well plate, and the cells were treated with AST-DT-218 after being attached. Subsequently, the cells were washed with PBS, proteins were extracted using a cell lysis buffer, and the cell extract was centrifugated to collect the supernatant. Then, protein samples having the same concentration were loaded onto an SDS-PAGE gel and subjected to electrophoresis, and the proteins were transferred to a PVDF membrane. After blocking the membrane with 5% skim milk (or BSA), each of the antibodies against γ-H2AX (DNA damage marker), cleaved PARP (apoptosis marker), and beta-actin was treated at 4° C. for 16 hours. The Western blotting results were analyzed to evaluate the expression levels of gamma-H2AX and cleaved PARP. Beta-actin was used as a loading control to check the consistency of the protein loading.

[2] = test system: SK-N-SH brain cancer cell line; assay: In vitro cell survival assay (nuclear staining), SK-N-SH; format: cell-based; conditions: Homo sapiens, 48 hours treatment, cell number by nuclear staining
Method: (§1) An in vitro experiment was carried out to check whether the compound (AST-DT-218) prepared in Example 2 was effective in the cell death in the brain cancer. First, brain cancer cell lines (U87, U373, and SK-N-SH) were cultured in the respective flasks to prepare cells that had reached the logarithmic growth stage. Then, the cells were washed with PBS, harvested with trypsin, centrifuged to adjust the cell density, and then resuspended in a suitable culture medium, and the cells were dispensed into a 96-well plate. The culture was carried out until the cells were attached to the plate and stabilized. AST-DT-218 and temozolomide, a conventional therapeutic agent for glioblastoma, were prepared and diluted at various concentrations (½ dilution from the highest concentration of 50 μM, 10-point). The cells in the well of the plate were treated for 48 hours with each compound at individual concentrations, and the cells were cultured to react with the compound. After the culture was completed, the number of cells was measured through the nuclear staining of the cells to evaluate the cell survival rate (FIG. 1), and IC50 was calculated (Table 2).

[3] = test system: U87 brain cancer cell line; assay: In vitro cell survival assay (nuclear staining), U87; format: cell-based; conditions: for pIC50: U87, 48 hours treatment, cell number by nuclear staining
Method: as §1

[4] = test system: U373 brain cancer cell line; assay: In vitro cell survival assay (nuclear staining), U373; format: cell-based; conditions: Homo sapiens, U373 MG; U373, 48 hours treatment, cell number by nuclear staining
Method: as §1

[5] = test system: U87 cells; assay: Measurement of sub G1 population (flow cytometry); format: cell-based; conditions: 48 hours, 0.5 μM and 1 μM
Method: The sub G1 population was measured to check whether AST-DT-218 induces DNA fragmentation and apoptosis as in Experimental Example 3-1. […] The value of the sub G1 population of cells was measured using a flow cytometry apparatus (FIG. 5).

[6] = test system: U373 glioblastoma-derived brain cancer cell line; assay: Dose response curve (DRC), cell survival, U373; format: cell-based; conditions: Homo sapiens, U373 MG; Glioblastoma U373, 48 hours, highest concentration 10 μM; read-out: IC50 of AST-DT-218, U373
Method: (§2) The DRC was created in order to check whether AST-DT-218 is effective in the cell death in the brain cancer. First, glioblastoma-derived brain cancer cell lines (U87 and U373) were cultured in the respective flasks to prepare cells that had reached the logarithmic growth stage. Then, the cells were washed with PBS, harvested with trypsin, centrifuged to adjust the cell density, and then resuspended in a suitable culture medium, and the cells were dispensed into a 96-well plate. Cells were cultured until they were attached to the plate and stabilized, AST-DT-218 and a control group (lenalidomide, pomalidomide) were prepared and diluted to a variety of concentrations (½ dilution from the highest concentration of 10 μM, 10-point). The cells in the well of the plate were treated for 48 hours with each compound at individual concentrations, and the cells were cultured to react with the compound. After the culture was completed, the number of cells was measured through the nuclear staining of the cells to evaluate the cell survival rate. The cell survival rate at each concentration was measured to collect data. Then, the DRC was created (FIG. 6 and FIG. 7), and IC50 was calculated (Table 3).

[7] = test system: U87 cells; assay: Colony-formation assay; format: cell-based; conditions: cultured about two weeks, crystal violet
Method: U87 cells, which are a brain cancer cell line, were cultured, the cells were separated using Trypsin-EDTA when the cells grew sufficiently, the cells were distributed uniformly on a 12-well plate, and the cells were treated with AST-DT-218 in each well after being attached. Then, the cells were cultured for about two weeks in an environment of 37° C. and about 5% CO2. When the cultivation was completed, the cells were fixed. Then, the colonies were stained with a crystal violet solution, and after the staining, the colonies were washed with PBS to remove background staining. A microscope was used to observe the colonies, and the number and size of the colonies were measured and quantified (FIG. 2).

[8] = test system: U87 glioblastoma-derived brain cancer cell line; assay: Dose response curve (DRC), cell survival, U87; format: cell-based
Method: as §2

[9] = test system: 83NS (GSC cell line derived from a GBM patient) orthotopic glioblastoma model; assay: In vivo orthotopic glioblastoma xenograft model, survival; conditions: mice, oral daily 50 mg/kg for 4 weeks, 83NS orthotopic model
Method: An in vivo experiment was carried out using a xenograft model. Specifically, 83NS (GSC cell line derived from a GBM patient) was used to construct an orthotopic glioblastoma model in such a way that 1×10^4 cells were injected into the brain of each of mice (n=16) at a volume of 3 μl. Thereafter, a vehicle was administered to mice (n=8), and AST-DT-218 was orally administered daily to the remaining mice (n=8) at a concentration of 50 mg/kg for 4 weeks, […]. On the other hand, the drug to be administered was changed to AST-DT-135, and the same experiment was carried out.

[10] = test system: U87 cells; assay: Propidium iodide (PI) apoptosis assay; format: cell-based; conditions: flow cytometry
Method: A PI apoptosis assay was carried out to check whether AST-DT-218 induces DNA fragmentation and apoptosis as in Experimental Example 3-1. A PI detection kit was prepared, propidium iodide (PI) was added to the U87 cells that had been treated with AST-DT-218, and a reaction was allowed to proceed at room temperature in a dark room for 10 minutes. Then, PI fluorescence was measured using a flow cytometry apparatus (FIG. 4).

SMILES | DNA fragmentation and apoptosis (expression of gamma-H2AX and cleaved PARP) [1] | pIC50 [2] | pIC50 [3] | cell death efficacy compared with temozolomide ([3]; brain cancer cell lines U87, U373, SK-N-SH, summary of Table 2) | pIC50 [4] | value of the sub G1 population [5] | pIC50 [6] | formation of colonies [7] | pIC50 ([8]; Glioblastoma U87, 48 hours, highest concentration 10 μM, read-out: IC50 of AST-DT-218, U87) | cell death of brain cancer cells compared with lenalidomide and pomalidomide ([8]; U87 and U373, DRC) | survival rate (Kaplan-Meier analysis) versus vehicle [9] | DNA fragmentation and apoptosis (PI fluorescence) [10]
COc1ccc([C@@H](C)Nc2cccc3c2C(=O)N(C2CCC(=O)NC2=O)C3=O)cc1 (stereo partly drawn) [AST-DT-218, 2-(2,6-dioxopiperidin-3-yl)-4-(((R)-1-(4-methoxyphenyl)ethyl)amino)isoindoline-1,3-dione] | induced DNA fragmentation and apoptosis | 6.62 | 5.47 | efficacy superior to temozolomide | 6.15 | increased | 5.91 | significantly reduced the formation of colonies | 5.47 | effective in the cell death of the brain cancer cells | significantly increased survival rate | induced DNA fragmentation and apoptosis
Cn1nnc2c(C(N)=O)ncn2c1=O [Temozolomide, temozolomide, reference compound] |  | 4.61 | 3.54 |  |  |  |  |  |  |  |  | 
CCC[C@H](C)Nc1cccc2c1C(=O)N(C1CCC(=O)NC1=O)C2=O (stereo partly drawn) [AST-DT-135, 2-(2,6-dioxopiperidin-3-yl)-4-(((S)-pentan-2-yl)amino)isoindoline-1,3-dione] |  |  |  |  |  |  |  |  |  |  | significantly increased survival rate | 
